In assay [1] the target is T1, GRK2 (Homo sapiens, UniProt P25098).
T1 sequence (P25098 1-689): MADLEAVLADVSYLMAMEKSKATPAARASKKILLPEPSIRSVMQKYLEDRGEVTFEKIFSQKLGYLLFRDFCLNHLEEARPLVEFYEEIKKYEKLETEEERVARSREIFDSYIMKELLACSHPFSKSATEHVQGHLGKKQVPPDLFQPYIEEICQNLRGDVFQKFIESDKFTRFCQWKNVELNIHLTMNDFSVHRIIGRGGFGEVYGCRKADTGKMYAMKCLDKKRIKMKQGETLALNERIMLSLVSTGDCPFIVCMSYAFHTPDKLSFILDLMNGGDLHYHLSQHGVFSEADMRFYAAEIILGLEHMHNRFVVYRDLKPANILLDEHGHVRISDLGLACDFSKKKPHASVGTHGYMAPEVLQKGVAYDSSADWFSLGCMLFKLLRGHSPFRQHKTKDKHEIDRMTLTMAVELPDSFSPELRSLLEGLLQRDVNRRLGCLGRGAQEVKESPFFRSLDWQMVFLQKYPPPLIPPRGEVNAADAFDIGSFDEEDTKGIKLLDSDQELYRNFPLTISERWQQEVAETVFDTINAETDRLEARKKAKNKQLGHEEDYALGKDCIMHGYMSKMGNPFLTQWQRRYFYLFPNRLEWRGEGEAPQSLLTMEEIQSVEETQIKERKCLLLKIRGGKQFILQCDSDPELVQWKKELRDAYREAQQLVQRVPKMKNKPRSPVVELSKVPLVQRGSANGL
Briefly: GRK2 Inhibition Assay (TR-FRET, Example 1). The assay is classed as biochemical. Summed up:
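TR-FRET phosphorylation readout: Eu anti-TopoIIα antibody with EDTA added after a 90 min RT kinase reaction of 1 nM GRK2, 7 μM ATP and 50 nM ULight-TopoIIα. Compounds were pre-incubated with enzyme 30 min at room temperature beforehand.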
For orientation: In TR-FRET formats the signal depends on donor and acceptor labels being close together.

The test system of the next assay is PAXF1657 EV. Briefly: 7-day cellular proliferation assay (CellTiter-Glo), PAXF1657 EV. The assay is classed as cell-based. Summed up: (§1)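 500 cells/well, RPMI1640 + 10% H.I. FBS, adhered overnight at 37° C. Compound 10-pt dilution, 30 μM-0.0002 μM final, 0.3% DMSO. 3 d, media + compound replaced, further 4 d. Viability by CellTiter-Glo; untreated plates read at time of dosing.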
For orientation: ATP-based viability assays read luminescence as a measure of living cells.

The next assay concerns PAXF1657 KO Clone #4. As to the kind of experiment: 7-day cellular proliferation assay (CellTiter-Glo), PAXF1657 KO Clone #4. The assay is classed as cell-based. The method in brief:
as §1

Assay [2] addresses T1, GRK2. As to the kind of experiment: GRK2 Degradation Assay and Western Blot in PAXF1657 cells. The assay is classed as cell-based. Details: endogenous in cells; host or cells: PAXF1657. Summed up: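 GRK2 degradation judged by immunoblot: NP40 lysates separated by SDS-PAGE and probed for GRK2 and β-actin, with HRP/ECL detection. Lysates came from PAXF1657 cells exposed to 0–10 μM compound for 6–24 h after reaching 70% confluency.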
On the technique in general: Immunoblotting shows a protein as a band on a membrane.

The mark [3] stands for this setting: TR-FRET, 7 μM ATP, read-out: Enzymatic GRK2 Assay: IC50 (nM) (Example 1).
[4] abbreviates: 168 h, 7-day, read-out: 7-day proliferation assay: IC50 GeoMean (uM) [Cell Line: PAXF1657 EV].
Where [5] appears, read: 168 h, 7-day, read-out: 7-day proliferation assay: IC50 GeoMean (uM) [Cell Line: PAXF1657 KO Clone #4].
Where [6] appears, read: 1 uM, PAXF1657 EV, 24 hrs, read-out: % GRK2 degradation at 1 uM in PAXF1657 EV (24 hrs).
The mark [7] stands for this setting: 3 uM, PAXF1657 EV, 24 hrs, read-out: % GRK2 degradation at 3 uM in PAXF1657 EV (24 hrs).
The mark [8] stands for this setting: 0.3 uM, PAXF1657 EV, 24 hrs, read-out: % GRK2 degradation at 0.3 uM in PAXF1657 EV (24 hrs).
Setting [9] is: Table 4, Example 1 assay, read-out: Enzymatic GRK2 IC50: Av IC50 GRK2.
Where [10] appears, read: proliferation, read-out: GeoMean IC50 (UM) PAXF1657 EV.
The mark [11] stands for this setting: proliferation, read-out: GeoMean IC50 (uM) PAXF1657 KO Clone #4.
The mark [12] stands for this setting: Conc 0.3 uM, read-out: Degradation Assay - 3 point: Degradation (%).
Setting [13] is: Conc 1 uM, read-out: Degradation Assay - 3 point: Degradation (%).
[14] abbreviates: Conc 3 uM, read-out: Degradation Assay - 3 point: Degradation (%).

Where a name gives a salt, the structure may show the parent alone. Read-outs that look alike come from different tables or passages of the source. Bounds are passed on as bounds.

On to `Cc1ncsc1-c1ccc(CNC(=O)[C@@H]2C[C@@H](O)CN2C(=O)[C@@H](NC(=O)CCCCCOCCOCCOCCCCCCOc2ccc(CNC(=O)c3cccc(NCc4nnc(-c5ccncn5)n4C)c3)cc2)C(C)(C)C)cc1` [Compound D87], for which the IC50 at GRK2 [1] (setting [3]) was below 100 nM; with PAXF1657 EV (setting [4]) it was 1 to 10 µM; with PAXF1657 KO Clone #4 (setting [5]), above 10 µM. Also, the inhibition at 1 µM on GRK2 [2] (setting [6]) came out at 23%. Moreover, the inhibition at 3 µM at GRK2 [2] (setting [7]) worked out at 18%.
With `Cc1ncsc1-c1ccc([C@H](C)NC(=O)[C@@H]2C[C@@H](O)CN2C(=O)[C@@H](NC(=O)CCCCCOCCOCCOCCCCCCOc2cccc(CNC(=O)c3cccc(NCc4nnc(-c5ccncn5)n4C)c3)c2)C(C)(C)C)cc1` [Compound D90], the values for the IC50 at GRK2 [1] (setting [3]), in the assay with PAXF1657 EV (setting [4]) and in the assay on PAXF1657 KO Clone #4 (setting [5]) were below 100 nM, 1 to 10 µM and above 10 µM, respectively. Moreover, the inhibition at 1 µM on GRK2 [2] (setting [6]) is 23%. For the same compound, the inhibition at 3 µM at GRK2 [2] (setting [7]) was determined as 20%.
On to `Cc1ncsc1-c1ccc(CNC(=O)[C@@H]2C[C@@H](O)CN2C(=O)[C@@H](NC(=O)CCCCCOCCOCCOCCCCCCOc2cccc(C(C)NC(=O)c3cccc(NCc4nnc(-c5ccncn5)n4C)c3)c2)C(C)(C)C)cc1` (stereo partly drawn) [Compound D91, (2S,4R)-1-((2S)-2-(tert-butyl)-22-(3-(1-(3-(((4-methyl-5-(pyrimidin-4-yl)-4H-1,2,4-triazol-3-yl)methyl)amino)benzamido)ethyl)phenoxy)-4-oxo-10,13,16-trioxa-3-azadocosan-1-oyl)-4-hydroxy-N-(4-(4-methylthiazol-5-yl)benzyl)pyrrolidine-2-carboxamide], for which the figures for the IC50 at GRK2 [1] (setting [3]), with PAXF1657 EV (setting [4]) and in the assay with PAXF1657 KO Clone #4 (setting [5]) were below 100 nM, below 1 µM and 1 to 10 µM, respectively. The “% GRK2 degradation at 0.03 uM in PAXF1657 EV (24 hrs)” value at GRK2 [2] (0.03 uM, PAXF1657 EV, 24 hrs) turned out to be 37%. In addition, the “% GRK2 degradation at 0.1 uM in PAXF1657 EV (24 hrs)” value at GRK2 [2] (0.1 uM, PAXF1657 EV, 24 hrs) amounted to 28%. For the same compound, the inhibition at 0.3 µM on GRK2 [2] (setting [8]) amounted to 42%. Besides, the inhibition at 1 µM on GRK2 [2] (setting [6]) was found to be 51%. Besides, at GRK2 [2] (setting [7]), the inhibition at 3 µM is 16%. Moreover, at GRK2 [2] (10 uM, PAXF1657 EV, 24 hrs), the “% GRK2 degradation at 10 uM in PAXF1657 EV (24 hrs)” value is given as −4%.
Turning to `Cc1ncsc1-c1ccc(CNC(=O)[C@@H]2C[C@@H](O)CN2C(=O)[C@@H](NC(=O)CCCCCOCCOCCOCCCCCCOc2ccc(C(F)(F)F)c(CNC(=O)c3cccc(NCc4nnc(-c5ccncn5)n4C)c3)c2)C(C)(C)C)cc1` [Compound D92, (2S,4R)-1-((S)-2-(tert-butyl)-22-(3-((3-(((4-methyl-5-(pyrimidin-4-yl)-4H-1,2,4-triazol-3-yl)methyl)amino)benzamido)methyl)-4-(trifluoromethyl)phenoxy)-4-oxo-10,13,16-trioxa-3-azadocosan-1-oyl)-4-hydroxy-N-(4-(4-methylthiazol-5-yl)benzyl)pyrrolidine-2-carboxamide], the IC50 is below 100 nM at GRK2 [1] (setting [3]), below 1 µM in the assay with PAXF1657 EV (setting [4]) and above 10 µM with PAXF1657 KO Clone #4 (setting [5]). In addition, the inhibition at 0.3 µM on GRK2 [2] (setting [8]) was found to be 34%. The inhibition at 1 µM on GRK2 [2] (setting [6]) was 12%. On GRK2 [2] (setting [7]), the inhibition at 3 µM was determined as 5%.
Take `CN[C@@H](C)C(=O)N[C@H](C(=O)N1CCC[C@H]1c1nc(C(=O)c2cccc(OCc3cn(CCCCCCOc4cccc(CNC(=O)c5cccc(NCc6nnc(-c7ccncn7)n6C)c5)c4)nn3)c2)cs1)C1CCCCC1` [Compound D102, N-(3-((6-(4-((3-(2-((S)-1-((S)-2-cyclohexyl-2-((S)-2-(methylamino)propanamido)acetyl)pyrrolidin-2-yl)thiazole-4-carbonyl)phenoxy)methyl)-1H-1,2,3-triazol-1-yl)hexyl)oxy)benzyl)-3-(((4-methyl-5-(pyrimidin-4-yl)-4H-1,2,4-triazol-3-yl)methyl)amino)benzamide]: the IC50 at GRK2 [1] (setting [3]) was below 100 nM; with PAXF1657 EV (setting [4]), below 1 µM; in the assay with PAXF1657 KO Clone #4 (setting [5]) it was 1 to 10 µM. The inhibition at 1 µM on GRK2 [2] (setting [6]) was 70%. At GRK2 [2] (setting [7]), the inhibition at 3 µM came out at 73%.
For the compound `CN[C@@H](C)C(=O)N[C@H](C(=O)N1CCC[C@H]1c1nc(C(=O)c2cccc(OCc3cn(CCCCCCOc4cccc([C@@H](C)NC(=O)c5cccc(NCc6nnc(-c7ccncn7)n6C)c5)c4)nn3)c2)cs1)C1CCCCC1` [Compound D105], the IC50 was 8.71 nM at GRK2 [1] (setting [9]), 0.11 µM with PAXF1657 EV (setting [10]) and 3.72 µM with PAXF1657 KO Clone #4 (setting [11]). Moreover, the inhibition at 0.3 µM on GRK2 [2] (setting [12]) came out at 87%. In addition, at GRK2 [2] (setting [13]), the inhibition at 1 µM amounted to 86%. The inhibition at 3 µM on GRK2 [2] (setting [14]) was found to be 85%.
On to `Cc1ncsc1-c1ccc(CNC(=O)[C@@H]2C[C@@H](O)CN2C(=O)[C@@H](NC(=O)CCCCOCCOCCOCCCCCCOc2cccc(CNC(=O)c3cccc(NCc4nnc(-c5ccncn5)n4C)c3)c2)C(C)(C)C)cc1` [Compound D109, (2S,4R)-1-((S)-2-(tert-butyl)-21-(3-((3-(((4-methyl-5-(pyrimidin-4-yl)-4H-1,2,4-triazol-3-yl)methyl)amino)benzamido)methyl)phenoxy)-4-oxo-9,12,15-trioxa-3-azahenicosan-1-oyl)-4-hydroxy-N-(4-(4-methylthiazol-5-yl)benzyl)pyrrolidine-2-carboxamide], for which the figures for the IC50 on GRK2 [1] (setting [9]), in the assay on PAXF1657 EV (setting [10]) and with PAXF1657 KO Clone #4 (setting [11]) were 54.9 nM, 0.68 µM and 5.17 µM, respectively. Also, the inhibition at 0.3 µM at GRK2 [2] (setting [12]) was determined as 26.1%. Besides, at GRK2 [2] (setting [13]), the inhibition at 1 µM is 45.9%. The inhibition at 3 µM at GRK2 [2] (setting [14]) came to 66.6%.
Consider `Cc1ncsc1-c1ccc(CNC(=O)[C@@H]2C[C@@H](O)CN2C(=O)[C@@H](NC(=O)CCCOCCOCCOCCCCCCOc2ccc([C@@H](C)NC(=O)c3cccc(NCc4nnc(-c5ccncn5)n4C)c3)cc2)C(C)(C)C)cc1` [Compound D116], for which the results for the IC50 at GRK2 [1] (setting [9]), in the assay on PAXF1657 EV (setting [10]) and with PAXF1657 KO Clone #4 (setting [11]) were 6.6 nM, 1.88 µM and 7.48 µM, respectively. Moreover, the inhibition at 0.3 µM on GRK2 [2] (setting [12]) came out at 15%. For the same compound, on GRK2 [2] (setting [13]), the inhibition at 1 µM turned out to be 30%. Also, on GRK2 [2] (setting [14]), the inhibition at 3 µM was -40%.
In the case of `C[C@@H](NC(=O)c1cccc(NCc2nnc(-c3ccncn3)n2C)c1)c1cccc(C(=O)N2CCC(CCCN3CCN(c4ccc5c(c4)CN(C4CCC(=O)NC4=O)C5=O)CC3)CC2)c1` (stereo partly drawn) [Compound D119, N-((1R)-1-(3-(4-(3-(4-(2-(2,6-dioxopiperidin-3-yl)-1-oxoisoindolin-5-yl)piperazin-1-yl)propyl)piperidine-1-carbonyl)phenyl)ethyl)-3-((4-methyl-5-(pyrimidin-4-yl)-4H-1,2,4-triazol-3-yl)methylamino)benzamide hydrochloride], the IC50 on GRK2 [1] (setting [9]) is 16.1 nM; with PAXF1657 EV (setting [10]), 0.116 µM; with PAXF1657 KO Clone #4 (setting [11]) it was 2.73 µM. In addition, on GRK2 [2] (setting [12]), the inhibition at 0.3 µM was 90%. The inhibition at 1 µM at GRK2 [2] (setting [13]) was found to be 93.7%. Also, the inhibition at 3 µM at GRK2 [2] (setting [14]) came to 89%.
Regarding `C[C@@H](NC(=O)c1cccc(NCc2nnc(-c3ccncn3)n2C)c1)c1cccc(C(=O)N2CCC(CCN3CCN(c4ccc5c(c4)CN(C4CCC(=O)NC4=O)C5=O)CC3)CC2)c1` (stereo partly drawn) [Compound D120], the IC50 was 9.55 nM on GRK2 [1] (setting [9]), 0.04 µM in the assay on PAXF1657 EV (setting [10]) and above 30 µM in the assay with PAXF1657 KO Clone #4 (setting [11]). The inhibition at 0.3 µM on GRK2 [2] (setting [12]) was 90.8%. Besides, on GRK2 [2] (setting [13]), the inhibition at 1 µM was 94.8%. Moreover, on GRK2 [2] (setting [14]), the inhibition at 3 µM worked out at 89.6%.

For the origin of these results see patent publication US20240174637A1, “DEGRADERS OF GRK2 AND USES THEREOF” (Sonata Therapeutics, Inc., priority 2021, published 2024).
